Target: T1, SMYD2 (Homo sapiens, UniProt Q9NRG4)
T1 construct: Full length SMYD2 (NP 064582.2) was cloned; His6 (N, cleaved yes); FLAG (N); made in house; host or cells: Sf9 insect cells
Test: SMYD2 Biochemical Assay (3H-SAM, biotinylated peptide substrate, Flashplate)
Settings: IC50 values are an average of n = 1 to n = 50; read-out: SMYD2 Biochem IC50 (μM)*
Outline: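 Full-length His/FLAG-tagged SMYD2 expressed in Sf9 cells with tag cleaved, 1.5 nM, pre-incubated 30 min at room temperature with compound, then 10 nM 3H-SAM and 60 nM biotinylated peptide added. Buffer 20 mM Bicine pH 7.6, 1 mM TCEP, 0.005% BSG, 0.002% Tween20, 2% DMSO. Stopped with 600 uM cold SAM; 3H-peptide captured on streptavidin Flashplate; IC50 by curve fit.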

T1 sequence (Q9NRG4 whole entry): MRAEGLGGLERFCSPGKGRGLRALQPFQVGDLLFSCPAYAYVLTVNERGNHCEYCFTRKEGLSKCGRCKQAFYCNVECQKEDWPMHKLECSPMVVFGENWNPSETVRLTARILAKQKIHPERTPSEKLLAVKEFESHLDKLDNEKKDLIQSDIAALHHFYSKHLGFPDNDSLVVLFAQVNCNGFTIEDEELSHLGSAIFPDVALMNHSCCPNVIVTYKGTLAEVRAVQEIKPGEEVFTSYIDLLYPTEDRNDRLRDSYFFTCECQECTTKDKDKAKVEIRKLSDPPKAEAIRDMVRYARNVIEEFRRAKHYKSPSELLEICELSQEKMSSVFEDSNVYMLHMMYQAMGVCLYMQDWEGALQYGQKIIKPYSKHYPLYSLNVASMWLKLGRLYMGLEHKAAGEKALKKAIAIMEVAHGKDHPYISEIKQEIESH

| IC50 [µM] | Compound |
| --- | --- |
| 7.69 | C[C@H]1CN(CC2CCN(C(=O)OC(C)(C)C)CC2)C[C@H]1NC(=O)c1cc(C2CC2)on1 (racemic) [compound 205, (±)-cis-tert-butyl 4-{[3-(5-cyclopropyl-1,2-oxazole-3-amido)-4-methylpyrrolidin-1-yl]methyl}piperidine-1-carboxylate] |
| 10.6 | C[C@H]1CN(Cc2cccnc2)C[C@H]1NC(=O)c1cc(C2CC2)on1 (racemic) [compound 120, (±)-cis-5-cyclopropyl-N-[4-methyl-1-(pyridin-3-ylmethyl)pyrrolidin-3-yl]-1,2-oxazole-3-carboxamide] |
| > 50 | C[C@H]1CN(CC(=O)N(C)C)C[C@H]1NC(=O)c1cc(C2CC2)on1 (racemic) [compound 267, (±)-cis-5-cyclopropyl-N-[1-[(dimethyl-carbamoyl)methyl]-4-methylpyrrolidin-3-yl]-1,2-oxazole-3-carboxamide] |
| > 50 | C[C@H]1CN(CC(=O)N2CCN(C)CC2)C[C@H]1NC(=O)c1cc(C2CC2)on1 (racemic) [compound 263, (±)-cis-5-cyclopropyl-N-[4-methyl-1-[2-(4-methylpiperazin-1-yl)-2-oxoethyl]pyrrolidin-3-yl]-1,2-oxazole-3-carboxamide] |
| > 50 | C[C@H]1CN(c2ccnc(N)n2)C[C@H]1NC(=O)c1cc(C2CC2)on1 (racemic) [compound 334, (±)-cis-N-[1-(2-amino-pyrimidin-4-yl)-4-methylpyrrolidin-3-yl]-5-cyclopropyl-1,2-oxazole-3-carboxamide] |
| > 50 | CC(C)[C@H]1CN(C(C)C)C[C@H]1NC(=O)c1cc(C2CC2)on1 (racemic) [compound 219, (±)-cis-N-[1,4-bis(propan-2-yl)pyrrolidin-3-yl]-5-cyclopropyl-1,2-oxazole-3-carboxamide] |
| 48.1 | CC(C)N1C[C@H](NC(=O)c2cc(C3CC3)on2)[C@@H](C2CC2)C1 (racemic) [compound 138, (±)-trans-5-cyclopropyl-N-[4-cyclopropyl-1-(propan-2-yl)pyrrolidin-3-yl]-1,2-oxazole-3-carboxamide] |
| > 50 | CC(C)N1C[C@H](C)[C@H](NC(=O)c2cc(C3CNC3)on2)C1 (racemic) [compound 342, (±)-cis-5-(azetidin-3-yl)-N-[4-methyl-1-(propan-2-yl)pyrrolidin-3-yl]-1,2-oxazole-3-carboxamide] |
| > 50 | COc1cc(CN2C[C@@H](C)[C@H](NC(=O)c3cc(C4CC4)on3)C2)cc(OC)c1 (racemic) [compound 181, (±)-trans-5-cyclopropyl-N-[1-[(3,5-dimethoxy-phenyl)methyl]-4-methylpyrrolidin-3-yl]-1,2-oxazole-3-carboxamide] |
| 1.15 | CCC(c1ccccc1)N1C[C@H](C)[C@H](NC(=O)c2cc(C3CC3)on2)C1 (relative stereo) [compound 329, cis-5-cyclopropyl-N-[4-methyl-1-(1-phenyl-propyl)pyrrolidin-3-yl]-1,2-oxazole-3-carboxamide] |
| > 50 | C[C@@H]1CN(CC(F)F)C[C@H]1NC(=O)c1cc(C2CC2)on1 (racemic) [compound 215, (±)-trans-5-cyclopropyl-N-[1-(2,2-difluoro-ethyl)-4-methylpyrrolidin-3-yl]-1,2-oxazole-3-carboxamide] |
| > 50 | C[C@@H]1CN(c2cnccn2)C[C@H]1NC(=O)c1cc(C2CC2)on1 (racemic) [compound 292, (±)-trans-5-cyclopropyl-N-[4-methyl-1-(pyrazin-2-yl)pyrrolidin-3-yl]-1,2-oxazole-3-carboxamide] |
| 4.96 | COc1cccc(CN2C[C@H](C)[C@H](NC(=O)c3cc(C4CC4)on3)C2)c1 (racemic) [compound 223, (±)-cis-5-cyclopropyl-N-[1-[(3-methoxy-phenyl)methyl]-4-methylpyrrolidin-3-yl]-1,2-oxazole-3-carboxamide] |
| 19.8 | C[C@@H]1CN(C2CCS(=O)(=O)CC2)C[C@@H]1NC(=O)c1cc(C2CC2)on1 (racemic) [compound 166, (±)-cis-5-cyclopropyl-N-(1-(1,1-dioxido-tetrahydro-2H-thiopyran-4-yl)-4-methylpyrrolidin-3-yl)isoxazole-3-carboxamide] |
| 24.2 | C[C@H]1CN(Cc2ccc3ncccc3c2)C[C@H]1NC(=O)c1cc(C2CC2)on1 (racemic) [compound 332, (±)-cis-5-cyclopropyl-N-[4-methyl-1-(quinolin-6-ylmethyl)pyrrolidin-3-yl]-1,2-oxazole-3-carboxamide] |
| > 50 | CC(C)N1C[C@@H](NC(=O)c2cc(C3CC3)on2)C[C@H]1COCC#Cc1ccccc1 (stereo in doubt) [compound 240, (±)-cis-5-cyclopropyl-N-[(5-{[(3-phenylprop-2-yn-1-yl)oxy]methyl}-1-(propan-2-yl)pyrrolidin-3-yl]-1,2-oxazole-3-carboxamide] |
| > 50 | C[C@@H]1CN(CC(C)(C)C)C[C@H]1NC(=O)c1cc(C2CC2)on1 (racemic) [compound 130, (±)-trans-5-cyclopropyl-N-[(3S,4R)-1-(2,2-dimethylpropyl)-4-methylpyrrolidin-3-yl]-1,2-oxazole-3-carboxamide] |
| 3.57 | C[C@H]1CN(Cc2cccc3c2OCO3)C[C@H]1NC(=O)c1cc(C2CC2)on1 (racemic) [compound 331, (±)-cis-N-[1-(2H-1,3-benzodioxol-4-ylmethyl)-4-methyl-pyrrolidin-3-yl]-5-cyclopropyl-1,2-oxazole-3-carboxamide] |
| > 50 | C[C@H]1CN(c2ccccn2)C[C@H]1NC(=O)c1cc(C2CC2)on1 (racemic) [compound 318, (±)-cis-5-cyclopropyl-N-[4-methyl-1-(pyridin-2-yl)pyrrolidin-3-yl]-1,2-oxazole-3-carboxamide] |
| 33.4 | C[C@H]1CN(Cc2cc3ccccc3s2)C[C@H]1NC(=O)c1cc(C2CC2)on1 (racemic) [compound 195, (±)-cis-N-[1-(1-benzothiophen-2-ylmethyl)-4-methyl-pyrrolidin-3-yl]-5-cyclopropyl-1,2-oxazole-3-carboxamide] |
| > 50 | C[C@@H]1CN(CCC2CCN(C(=O)OC(C)(C)C)CC2)C[C@H]1NC(=O)c1cc(C2CC2)on1 (racemic) [compound 132] |
| > 50 | CC(C)[C@H]1CN(C)C[C@@H]1NC(=O)c1cc(C2CC2)on1 (racemic) [compound 177, (±)-trans-5-cyclopropyl-N-[1-methyl-4-(propan-2-yl)pyrrolidin-3-yl]-1,2-oxazole-3-carboxamide] |
| 48.3 | C[C@@H]1CN(Cc2c[nH]c3cc(Cl)ccc23)C[C@H]1NC(=O)c1cc(C2CC2)on1 (racemic) [compound 203, (±)-trans-N-[1-[(6-chloro-1H-indol-3-yl)methyl]-4-methyl-pyrrolidin-3-yl]-5-cyclopropyl-1,2-oxazole-3-carboxamide] |
| > 50 | CCc1nc(C)c(CN2C[C@@H](C)[C@H](NC(=O)c3cc(C4CC4)on3)C2)[nH]1 (racemic) [compound 131, (±)-trans-5-cyclopropyl-N-[1-[(2-ethyl-4-methyl-1H-imidazol-5-yl)methyl]-4-methyl-pyrrolidin-3-yl]-1,2-oxazole-3-carboxamide] |
| > 50 | COc1cc(CN2C[C@H](C)[C@H](NC(=O)c3cc(C4CC4)on3)C2)cc(OC)c1 (racemic) [compound 333, (±)-cis-5-cyclopropyl-N-{1-[(3,5-dimethoxy-phenyl)methyl]-4-methylpyrrolidin-3-yl}-1,2-oxazole-3-carboxamide] |

Same assay, conditions: Table 1; average of n = 1 to n = 50; read-out: SMYD2 Biochem IC50

| IC50 [µM] | Compound |
| --- | --- |
| 18.2 | CC(C)N1C[C@@H](C)[C@H](NC(=O)c2cc(C3CC3)on2)C1 [compound 41, 5-cyclopropyl-N-((3S,4R)-1-isopropyl-4-methylpyrrolidin-3-yl)isoxazole-3-carboxamide] |
| 7.9 | C[C@H]1CN(C2CC2)C[C@H]1NC(=O)c1cc(C2CC2)no1 (racemic) [compound 51, (±)-cis-3-cyclopropyl-N-(1-cyclopropyl-4-methylpyrrolidin-3-yl)isoxazole-5-carboxamide] |
| 4.6 | C[C@H]1CN(C)C[C@H]1NC(=O)c1cc(C2CC2)on1 (racemic) [compound 44] |

Same assay, conditions: Table 2; average of n = 1 to n = 50; read-out: SMYD2 Biochem IC50

| IC50 [µM] | Compound |
| --- | --- |
| > 50 | C[C@H]1CN(CCS(C)(=O)=O)C[C@H]1NC(=O)c1cc(C2CC2)on1 (racemic) [compound 77, (±)-cis-cyclopropyl-N-((3S)-4-methyl-1-(2-(methyl-sulfonyl)ethyl)pyrrolidin-3-yl)isoxazole-3-carboxamide] |
| > 50 | C[C@H]1C[C@@H](NC(=O)c2cc(C3CC3)on2)CN1C (racemic) [compound 64, (±)-cis-5-cyclopropyl-N-(1,5-dimethylpyrrolidin-3-yl)isoxazole-3-carboxamide] |
| > 50 | C[C@H]1CN(C(=O)CO)C[C@@H]1NC(=O)c1cc(C2CC2)on1 (racemic) [compound 93, (±)-trans-5-cyclopropyl-N-(1-(2-hydroxyacetyl)-4-methylpyrrolidin-3-yl)isoxazole-3-carboxamide] |
| > 50 | C[C@@H]1CN(C2CCOCC2)C[C@H]1NC(=O)c1cc(C2CC2)on1 (racemic) [compound 97, (±)-trans-5-cyclopropyl-N-(4-methyl-1-(tetrahydro-2H-pyran-4-yl)pyrrolidin-3-yl)isoxazole-3-carboxamide] |
| 18.4 | C[C@@H]1CN(C2CCCCC2)C[C@@H]1NC(=O)c1cc(C2CC2)on1 (racemic) [compound 72, (±)-cis-N-(1-cyclohexyl-4-methylpyrrolidin-3-yl)-5-cyclopropylisoxazole-3-carboxamide] |
| 27.5 | C[C@H]1CN(CCN)C[C@H]1NC(=O)c1cc(C2CC2)on1 (racemic) [compound 78, (±)-cis-N-(1-(2-aminoethyl)-4-methylpyrrolidin-3-yl)-5-cyclopropylisoxazole-3-carboxamide] |

— patent publication US20170253601A1, “Substituted Pyrrolidine Compounds” (EPIZYME, INC., priority 2014, published 2017)
